For series [1] the following is noted: cited from earlier work.
Series [2] in a line: Stress tests in simulated GI tract media (SGF and SIF), observed under PLM. Type of series: physicochemical. The procedure:
For stress testing in media, solids of aEGCG and the dispersions were suspended in SGFs and SIFs (see Example 6), and the suspensions were observed under polarized light microscope from time to time to look for the evidence of birefringence and extinction (B/E) of the materials, which is the indication of the occurrence of crystallization in a material.
Polarized light microscopy (PLM) was performed using a Leica DM LP microscope with cross polarizer. SEM was performed using a FEI Quanta 200 scanning electron microscope equipped with an Everhart Thornley (ET) detector. Images were collected and analyzed using xTm (v. 2.01) and XT Docu (v. 3.2) software, respectively. The thermogravimetric analyses (TGA) were performed using a TA Instruments Q5000 IR thermogravimetric analyzer. Each sample was placed in an aluminum sample pan and inserted into the TGA furnace. The furnace was first equilibrated at 25° C., and then heated under N2 at a rate of 10° C./min, up to a final temperature of 350° C. Modulated differential scanning calorimetry (mDSC) data were obtained on a TA Instruments Q2920 differential scanning calorimeter equipped with a refrigerated cooling system (RCS). The test was progressed by modulating temperature±0.8° C. every 60 seconds from 0 to 180° C. The reported glass transition temperature (Tg) is obtained from the inflection point of the step change in the reversing heat flow versus temperature curve.
Solids were suspended in media including simulated gastric fluid (SGF) and simulated intestinal fluid (SIF), and observed under PLM from time to time up to 24 hours for evidence of crystallization indicative by the appearance of birefringence/extinctions. Because of the high solubility of aEGCG, more materials were suspended into the media compared with the dispersions.

For series [3] the following is noted: values as low as; rodents and humans; cited from earlier work.
Series [4] is described as follows: Dissolution test in pH 7.4 PBS at 37° C. It counts as physicochemical. The following applies: for Release of EGCG in the first 20 minutes: 20 mg EGCG equivalent in 100 mL; for Visible solids during dissolution test: up to 24 hours. On the procedure:
As an initial proposition, the dispersions, aEGCG and cEGCG were modeled with respect to pseudo-second order models according to equation 1 where t is time, Q is cumulative release, and Qe the final release and, and k2 the rate constant of pseudo-second order kinetics.
Dissolution testing was performed in 100 mL of standard phosphate-buffered salines (pH 7.4) at 37° C. in a jacketed beaker. The temperature was precisely controlled by a Julabo Heating Circulator. EGCG concentration in the solution was in-situ monitored via an Ocean Optics USB2000+UV-VIS spectrometer equipped with an RT-2MM Dip Probe. The testing was performed with continuous stirring until all solids were dissolved and the medium was free of observable particles, or up to 24 hours. For early period of dissolution, the data acquisition density was relatively large to capture all sudden changes; while at later periods, the data acquisition frequency was reduced due to slow evolution in the medium. For each material, an equivalency of 20 mg EGCG was tested and the experiment was monitored until all solids were dissolved or up to 24 hours. Based on the dissolution data, all EGCG (˜20 mg) were released into the medium within the period of dissolution tests for all samples.

A short description of series [5]: Stability of dispersions of varying weight ratios, about 40° C./75% RH/30 days. It counts as physicochemical. The procedure: For the four polymers identified, further stress tests were carried out on dispersions with varying weight ratios of EGCG to polymer as set forth in Example 8. In these experiments, stressing was done for 30 days at 75% relative humidity at 40° C. for 30 days. FIGS. 50-63 are the XRPD patterns of the prepared dispersions prior to stressing. FIGS. 75-78 are the XRPD patterns after stressing and these too show the samples to amorphous by XRPD. FIGS. 82, 83, and 85 show a peak indicative of NaCl, which is used in the salt both of the humidity chamber storing the samples. Thus, such a peak is not indicative of any crystalline EGCG in the corresponding dispersions. […] Based on the XRPD results, the post-stressing dispersions were x-ray amorphous (other than the NaCl peaks).
20 capsules of Teavigo™ were broken and the solids were suspended in ˜300 mL HPLC grade water and filtered to remove the solids. The resultant solution was clear with no evidence of solid particles observed. The solution was then dried under N2 purge until water is fully removed based on visual observation. Such generated EGCG solids were directly used for generating amorphous EGCG and solid dispersions.
EGCG solid dispersions were prepared by lyophilization using four polymers including HPMC-AS, HPMC-P, Soluplus®, and cellulose acetate. Individual solutions of polymer (in dioxane) and EGCG (in water) were prepared. The EGCG aqueous solution was added into the polymer-dioxane solution slowly. Additional fresh dioxane were added into the samples followed by vigorous vortexing to reach a clear solution without visible solids or colloids.
For lyophilization, each EGCG/polymer solution was frozen in a cold bath of dry ice/acetone (at a temperature of −78° C.). The sample vial was then kept in a lyophilizer at −30° C. for 1 day, −10° C. for 2 days, 0° C. for 1 day, and then 20° C. for 4 hours. Pure EGCG aqueous solution was lyophilized as well to generate amorphous EGCG (EGCG) as a reference material for comparison with the dispersions. The lyophilized materials are free flowing materials.

The nature of series [6]: Stress test at about 40° C./75% RH for 11 days. It counts as physicochemical. On the procedure:
The physical stability of aEGCG and the four dispersions were evaluated at different conditions including a typical stress condition of 40° C./75% RH for 11 days, and in media of SGF and SIF for 24 h. Table 1 summarizes the visual observations on the materials after they have been stressed at 40° C./75% RH for 11 days. The aEGCG became a hard material after stress, while all the dispersions were particles or soft aggregates.
XRPD patterns were collected with a PANalytical X'Pert PRO MPD diffractometer using an incident beam of Cu radiation produced using an Optix long, fine-focus source. An elliptically graded multilayer mirror was used to focus Cu Kα X-rays through the specimen and onto the detector. Prior to the analysis, a silicon specimen (NIST SRM 640e) was analyzed to verify the observed position of the Si 111 peak is consistent with the NIST-certified position. A specimen of the sample was sandwiched between 3-μm-thick films and analyzed in transmission geometry. A beam-stop, short antiscatter extension, and antiscatter knife edge were used to minimize the background generated by air. Soller slits for the incident and diffracted beams were used to minimize broadening from axial divergence. Diffraction patterns were collected using a scanning position-sensitive detector (X'Celerator) located 240 mm from the specimen and Data Collector software v. 2.2b. […]

SMILES strings stand for the structures.

With `O=C(O[C@@H]1Cc2c(O)cc(O)cc2O[C@@H]1c1cc(O)c(O)c(O)c1)c1cc(O)c(O)c(O)c1` [EGCG, epigallocatechin gallate], the “Share present in plasma in free form” value in series [1] (Manach et al. 2005) was 77-90%. For the same molecule, the Improvement in bioavailability in series [1] (coadministration of piperine, Lambert et al. 2004) was 30%. The “Observations under PLM in SGF” value in series [2] (simulated gastric fluid, up to 24 h, B/E = birefringence/extinction, indicates crystallization) is on record as “B/E observed in 15 min”. Moreover, the “Observations under PLM in SIF” value in series [2] (simulated intestinal fluid, up to 24 h, B/E = birefringence/extinction, indicates crystallization) is recorded as “B/E observed in 15 min”. Also, in series [3], the Bioavailability is reported as 2-5%.

Consider `O=C(O[C@@H]1Cc2c(O)cc(O)cc2O[C@@H]1c1cc(O)c(O)c(O)c1)c1cc(O)c(O)c(O)c1` [aEGCG, epigallocatechin gallate], for which, in series [4], the “Release profile (in words)” value is listed as “immediate dissolution”, the “Release of EGCG in the first 20 minutes” value is ~100% and the “Visible solids during dissolution test” value is reported as “dissolved without visible solids”. The “Time to crystallization in SGF” value in series [2] (suspended in SGF, PLM) is ≤ 15 min. Further, the “Time to crystallization in SIF” value in series [2] (suspended in SIF, PLM) was ≤ 15 min. The “XRPD of post-stressing solids” value in series [5] (40° C./75% RH, 30 days) is “converted to crystalline EGCG”. Moreover, in series [5] (40° C./75% RH, 30 days, visual observation), the Color after stress result is “pink”. Further, in series [5] (before stress, visual observation), the Color as generated entry is “very light pink,”. Further, in series [6], the “Visual observation after stress” value was “pink hard material, agg” and the “XRPD of post-stress samples” value is “highly crystalline material”.

On to `O=C(O[C@@H]1Cc2c(O)cc(O)cc2O[C@@H]1c1cc(O)c(O)c(O)c1)c1cc(O)c(O)c(O)c1` [cEGCG, epigallocatechin gallate], for which, in series [4], the “Release of EGCG in the first 20 minutes” value is listed as “approximately 93%” and the “Visible solids during dissolution test” value is listed as “dissolved without visible solids”.

These data come from patent US20200323815A1, “AMORPHOUS DISPERSIONS OF EPIGALLOCATECHIN GALLATE” (AMRI SSCI, LLC, priority 2017, published 2020).
